Assay results reported in PubChem BioAssay (NCI).
Where “and” joins values, the source holds several entries; their conditions need not be identical. Equal values may be shown once.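 A five-concentration, 48-hour dose response in 96-well plates underlies each endpoint, interpolated linearly between surrounding concentrations. Here, GI50 denotes the concentration required for 50% inhibition of growth. The concentration for full growth arrest is given as TGI.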

Tests used:
Experiment in all cases: NCI-60 cell line screen, 48 h
EKVX NSCLC = tested on: EKVX NSCLC
NCI-H226 lung = tested on: NCI-H226 lung
NCI-H460 lung = tested on: NCI-H460 lung
RPMI-8226 leukemia = tested on: RPMI-8226 leukemia
SN12C renal = tested on: SN12C renal
UACC-62 melanoma = tested on: UACC-62 melanoma
A498 renal = tested on: A498 renal

SMILES | GI50 (EKVX NSCLC) | TGI (EKVX NSCLC) | GI50 (NCI-H226 lung) | TGI (NCI-H226 lung) | GI50 (NCI-H460 lung) | TGI (NCI-H460 lung) | GI50 (RPMI-8226 leukemia) | TGI (RPMI-8226 leukemia) | GI50 (SN12C renal) | TGI (SN12C renal) | GI50 (UACC-62 melanoma) | TGI (UACC-62 melanoma) | TGI (A498 renal) | GI50 (A498 renal)
Nc1nccc2c1ncn2C1OC(CO)C(O)C1O (stereo not drawn) | > 100 µM | > 100 µM | > 100 µM | > 100 µM | 73.8 µM | > 100 µM | > 100 µM | > 100 µM | 89.3 µM | > 100 µM | > 100 µM | > 100 µM | – | –
OCC(CCc1c[nH]c2ccccc12)c1c[nH]c2ccccc12 (stereo not drawn) | – | 30.3 µM | – | 36.7 µM | – | 28 µM | – | 73.5 µM | – | 32.6 µM | – | 27 µM | 30.2 µM | –
NS(=O)(=O)c1ccc(-n2ncc3c(Nc4ccccc4)ncnc32)cc1 | 41.4 µM | > 100 µM | 46.4 µM | > 100 µM | 14.9 µM | > 100 µM | 15.3 µM | 76.6 µM | > 100 µM | > 100 µM | 42.8 µM | > 100 µM | 92.7 µM | 24.3 µM
O=C(N/N=C/c1ccc(Cl)cc1Cl)c1ccc2nc(-c3ccc(Cl)cc3)[nH]c2c1 | 1.82 µM | 3.68 µM | 1.77 µM | 3.48 µM | 1.56 µM | 3.13 µM | 1.16 µM | 3.51 µM | 1.96 µM | 4.26 µM | 1.78 µM | 3.4 µM | 4.94 µM | 1.74 µM
C[C@@H](COCCC(=O)N1CCN(c2ncc(C(F)(F)F)cn2)CC1)Nc1cn[nH]c(=O)c1C(F)(F)F | > 94 µM | > 100 µM | > 56.2 µM | > 100 µM | 18.6 µM | > 100 µM | 31.8 µM | > 100 µM | 31.1 µM | > 100 µM | 45.3 µM | > 100 µM | – | 0.0219 µM
O=C1c2ccccc2-c2c1c1ccc([N+](=O)[O-])cc1c(=O)n2CCCNCCO | – | > 21 µM | 1.01 µM | 3.65 µM | 0.025 µM | 0.343 µM | 0.0359 µM | 0.239 µM | 0.287 µM | 2.07 µM | 0.372 µM | 1.85 µM | 3.75 µM | 1.39 µM
Cc1ccc2nc(-c3ccc(N)c4ccccc34)[nH]c2c1 | 0.185 µM | > 71.5 µM | 0.751 µM | 32.1 µM | 3.97 µM | – | 0.0298 µM | 0.934 µM | 0.0913 µM | 19.4 µM | < 0.0147 µM | 17.2 µM | 16.7 µM | 0.0953 µM
CCCCCCCCCCCCCCCCCCOc1ccccc1CC(=O)NCC[N+](C)(C)C | 18 µM | 66 µM | 4.4 µM | 42.9 µM | 3.47 µM | 52.4 µM | – | – | 3.67 µM | 37.9 µM | 6.55 µM | 62.5 µM | 49.8 µM | 9.55 µM
Cc1nc2c(N3CCCC3)nc(N3CCNCC3)nc2nc1NCc1ccccc1 | 5.46 µM | 10.6 µM and 20.8 µM | 7.54 µM | 16.1 µM and 28.4 µM | 5.97 µM | 13.3 µM and 13.4 µM | 4.08 µM | 10.2 µM and 4.84 µM | 6.39 µM | 13 µM and 19.9 µM | 6.15 µM | 12.7 µM and 7.58 µM | 9.77 µM and 27.2 µM | 14.2 µM
CCC1(NC(=O)c2cc(F)c(F)c(F)c2F)C(=O)NC(=O)N(C(C)C)C1=O (stereo not drawn) | 24.6 µM | 97 µM | 19.1 µM | 46.4 µM | 49.7 µM | > 100 µM | > 100 µM | > 100 µM | 26.4 µM | > 100 µM | 15.7 µM | 34.1 µM | 53 µM | 23.5 µM
COc1ccc2c(c1)c(-c1ccc(-c3cn(C)c4ccc(OC)cc34)[nH]1)cn2C | 1.73 µM | 3.74 µM | 8.2 µM | 22.2 µM | 4.09 µM | 19.5 µM | 1.28 µM | 3.38 µM | 2.77 µM | 10.9 µM | 2.14 µM | 6.55 µM | 49.1 µM | 10.9 µM
N#Cc1nc2c(S(=O)(=O)c3ccccc3)c(N)n(Cc3ccc(Cl)cc3)c2nc1C#N | 19.1 µM | > 50 µM | – | – | 10.9 µM | > 50 µM | 14.1 µM | > 50 µM | 5.14 µM | 17.6 µM | 7.51 µM | 18.1 µM | – | –
Cc1cc(N(CCCNc2ccnc3cc(Cl)ccc23)Cc2ccc3c(c2)OCO3)nc(N2CCCCC2)n1 | 2.56 µM | 38 µM | 4.03 µM | 20.5 µM | – | – | 1.91 µM | 4.93 µM | 2.87 µM | 12 µM | 1.91 µM | 3.64 µM | 5.11 µM | 2.14 µM
COc1cccc(N=N/C(=N\NC(=O)c2cc(Br)ccc2O)c2ccc(N(CCC#N)CCC#N)cc2OC)c1 | 99.9 µg/mL | > 150 µg/mL | 22 µg/mL | 79.7 µg/mL | 24.9 µg/mL | 82.7 µg/mL | 41.4 µg/mL | > 150 µg/mL | 99.4 µg/mL | > 150 µg/mL | 60.5 µg/mL | > 150 µg/mL | > 150 µg/mL | 150 µg/mL
COc1cc(NC(=O)NCc2ccco2)ccc1-c1ccc(NC(=O)NCc2ccco2)cc1OC | 3.26 µM | 31 µM | 1.46 µM | 7.92 µM | 0.526 µM | > 100 µM | > 100 µM | > 100 µM | 3.17 µM | 23.3 µM | 1.25 µM | 5.18 µM | 8.25 µM | 1.72 µM
COc1ccc(-c2cc(-c3cccc(NS(C)(=O)=O)c3)nc(N)c2C#N)cc1 | 0.525 µM | > 81.6 µM | 0.0725 µM | 28.2 µM | 0.0871 µM | 10.8 µM | 0.286 µM | 8.23 µM | 0.298 µM | 25.1 µM | 0.0459 µM | 15.9 µM | 54 µM | 0.116 µM
Clc1ccc(CNc2nccc(-c3cnn4ncccc34)n2)cc1 | 5.54 µM | > 19.9 µM | 7.79 µM | > 25 µM | 7.92 µM | > 25 µM | 5.8 µM | 20 µM | 7.54 µM | > 25 µM | 3.74 µM | 8.73 µM | 10.4 µM | 5.07 µM
